Measurements taken from ChEMBL document CHEMBL1156722, “A novel 5-[1,3,4-oxadiazol-2-yl]-N-aryl-4,6-pyrimidine diamine having dual EGFR/HER2 kinase activity: design, synthesis, and biological activity” (Bioorg Med Chem Lett, 2008).
pIC50: −log10 of the molar value.

Experiments:
[1] = biological target: T1, Aurora kinase A (Homo sapiens) (UniProt O14965); assay: Inhibition of Aurora A at 100 uM
T1 sequence (whole entry): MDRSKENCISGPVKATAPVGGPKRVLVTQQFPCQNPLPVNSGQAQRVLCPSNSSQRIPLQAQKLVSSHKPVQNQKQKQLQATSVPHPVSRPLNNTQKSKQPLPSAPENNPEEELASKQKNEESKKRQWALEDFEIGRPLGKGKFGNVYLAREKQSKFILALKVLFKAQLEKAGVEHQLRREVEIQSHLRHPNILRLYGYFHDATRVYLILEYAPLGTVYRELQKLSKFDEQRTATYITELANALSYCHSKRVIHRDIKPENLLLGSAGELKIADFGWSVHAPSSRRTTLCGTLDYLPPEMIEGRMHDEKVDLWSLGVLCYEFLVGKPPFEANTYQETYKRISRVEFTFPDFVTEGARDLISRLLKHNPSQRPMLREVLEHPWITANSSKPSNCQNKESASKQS

[2] = biological target: T2, Cyclin-dependent kinase 1 (Homo sapiens, UniProt P06493); assay: Inhibition of CDK1 at 100 uM
Target sequence in this assay (P06493 whole entry, looked up): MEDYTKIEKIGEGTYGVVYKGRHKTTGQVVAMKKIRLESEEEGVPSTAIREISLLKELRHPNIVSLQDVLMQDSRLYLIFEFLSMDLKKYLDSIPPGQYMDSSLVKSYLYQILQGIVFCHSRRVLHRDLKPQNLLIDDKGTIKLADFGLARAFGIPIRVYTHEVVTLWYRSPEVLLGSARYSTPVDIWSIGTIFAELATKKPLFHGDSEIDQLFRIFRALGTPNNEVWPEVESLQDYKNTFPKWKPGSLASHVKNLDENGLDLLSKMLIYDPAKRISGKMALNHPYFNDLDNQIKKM

[3] = biological target: T3, Vascular endothelial growth factor receptor 2 (Homo sapiens, UniProt P35968); assay: Inhibition of VEGFR2 at 100 uM
T3 sequence (P35968 whole entry): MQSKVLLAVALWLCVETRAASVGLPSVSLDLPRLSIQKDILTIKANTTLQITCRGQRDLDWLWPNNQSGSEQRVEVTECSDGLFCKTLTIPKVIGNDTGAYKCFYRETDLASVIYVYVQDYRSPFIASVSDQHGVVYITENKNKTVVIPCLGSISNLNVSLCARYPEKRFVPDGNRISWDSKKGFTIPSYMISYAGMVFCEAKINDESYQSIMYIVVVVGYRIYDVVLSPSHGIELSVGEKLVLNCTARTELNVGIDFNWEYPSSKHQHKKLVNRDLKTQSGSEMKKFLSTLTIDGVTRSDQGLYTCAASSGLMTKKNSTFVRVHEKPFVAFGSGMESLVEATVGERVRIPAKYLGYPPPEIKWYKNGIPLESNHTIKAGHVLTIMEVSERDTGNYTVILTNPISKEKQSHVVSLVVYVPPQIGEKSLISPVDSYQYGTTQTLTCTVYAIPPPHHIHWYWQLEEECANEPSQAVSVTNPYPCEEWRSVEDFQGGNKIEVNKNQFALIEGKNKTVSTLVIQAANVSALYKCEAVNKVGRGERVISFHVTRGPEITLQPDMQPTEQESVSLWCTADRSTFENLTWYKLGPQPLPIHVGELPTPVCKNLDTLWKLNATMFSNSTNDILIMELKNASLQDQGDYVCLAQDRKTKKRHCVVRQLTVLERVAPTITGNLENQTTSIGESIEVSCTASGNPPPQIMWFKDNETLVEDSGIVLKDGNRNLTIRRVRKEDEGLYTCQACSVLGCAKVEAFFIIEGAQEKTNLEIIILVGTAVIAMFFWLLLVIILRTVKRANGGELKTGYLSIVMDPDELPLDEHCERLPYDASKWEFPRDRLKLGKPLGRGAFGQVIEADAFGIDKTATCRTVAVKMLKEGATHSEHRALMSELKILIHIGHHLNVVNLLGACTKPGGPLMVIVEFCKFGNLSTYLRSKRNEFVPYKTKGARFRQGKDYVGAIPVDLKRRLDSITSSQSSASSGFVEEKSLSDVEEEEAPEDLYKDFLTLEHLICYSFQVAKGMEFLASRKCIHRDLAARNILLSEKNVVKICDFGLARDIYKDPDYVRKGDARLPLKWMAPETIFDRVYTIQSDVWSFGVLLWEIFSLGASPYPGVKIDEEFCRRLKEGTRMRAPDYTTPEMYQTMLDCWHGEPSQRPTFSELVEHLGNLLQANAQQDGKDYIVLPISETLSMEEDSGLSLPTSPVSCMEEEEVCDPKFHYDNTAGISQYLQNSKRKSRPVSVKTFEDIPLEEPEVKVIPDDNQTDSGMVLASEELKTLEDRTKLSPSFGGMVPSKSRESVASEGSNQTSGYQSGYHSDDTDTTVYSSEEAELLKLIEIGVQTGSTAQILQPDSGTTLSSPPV

[4] = biological target: Receptor tyrosine-protein kinase erbB-2 (Homo sapiens, UniProt P04626); assay: Inhibition of HER2
Sequence of Receptor tyrosine-protein kinase erbB-2 (P04626 whole entry): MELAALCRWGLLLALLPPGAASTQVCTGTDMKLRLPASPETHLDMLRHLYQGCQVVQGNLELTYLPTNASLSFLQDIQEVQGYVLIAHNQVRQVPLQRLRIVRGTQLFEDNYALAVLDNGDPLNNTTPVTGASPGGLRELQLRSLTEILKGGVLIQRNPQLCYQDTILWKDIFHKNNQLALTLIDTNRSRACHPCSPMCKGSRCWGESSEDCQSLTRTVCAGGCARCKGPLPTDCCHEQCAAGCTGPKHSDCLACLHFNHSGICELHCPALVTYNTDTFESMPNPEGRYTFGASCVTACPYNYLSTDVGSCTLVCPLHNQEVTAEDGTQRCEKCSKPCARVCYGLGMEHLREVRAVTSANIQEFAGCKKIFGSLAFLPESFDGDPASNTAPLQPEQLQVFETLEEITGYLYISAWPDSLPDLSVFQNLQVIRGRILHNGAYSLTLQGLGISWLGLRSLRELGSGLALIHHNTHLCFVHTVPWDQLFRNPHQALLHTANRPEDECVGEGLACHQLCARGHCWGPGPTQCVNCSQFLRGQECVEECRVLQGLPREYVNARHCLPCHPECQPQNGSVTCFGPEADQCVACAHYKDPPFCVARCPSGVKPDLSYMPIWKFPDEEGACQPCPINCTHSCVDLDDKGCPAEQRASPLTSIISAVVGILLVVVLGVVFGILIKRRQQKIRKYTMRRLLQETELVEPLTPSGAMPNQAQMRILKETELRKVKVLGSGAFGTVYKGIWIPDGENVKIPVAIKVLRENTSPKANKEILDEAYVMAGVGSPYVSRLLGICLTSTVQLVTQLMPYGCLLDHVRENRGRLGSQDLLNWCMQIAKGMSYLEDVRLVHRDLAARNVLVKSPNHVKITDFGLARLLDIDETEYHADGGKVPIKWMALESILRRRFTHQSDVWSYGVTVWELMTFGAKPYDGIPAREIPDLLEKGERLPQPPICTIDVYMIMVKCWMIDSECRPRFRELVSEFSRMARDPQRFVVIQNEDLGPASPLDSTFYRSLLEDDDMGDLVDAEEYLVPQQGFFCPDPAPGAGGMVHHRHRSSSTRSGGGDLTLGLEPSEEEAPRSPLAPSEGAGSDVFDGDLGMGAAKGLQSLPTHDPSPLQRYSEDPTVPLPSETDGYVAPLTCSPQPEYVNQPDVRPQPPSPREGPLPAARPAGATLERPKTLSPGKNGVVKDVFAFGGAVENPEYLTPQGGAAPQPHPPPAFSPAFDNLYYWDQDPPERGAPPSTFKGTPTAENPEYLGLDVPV

Aurora kinase A = biological target: T4, Aurora kinase A (Homo sapiens, UniProt O14965); assay: Inhibition of Aurora A
T4 sequence (O14965 whole entry): T1 sequence (whole entry)

[5] = biological target: T2, Cyclin-dependent kinase 1; assay: Inhibition of CDK1
Target sequence in this assay (P06493 whole entry): as the sequence (P06493 whole entry, looked up) above

[6] = biological target: T3, Vascular endothelial growth factor receptor 2; assay: Inhibition of VEGFR2
NCI-N87 = assay: Cytotoxicity against human HER2-dependent N87 cells; type: functional, cell-based
BT-474 = assay: Cytotoxicity against human HER2-dependent BT474 cells; type: functional, cell-based
SK-BR-3 = assay: Cytotoxicity against human HER2-dependent SKBR3 cells; type: functional, cell-based
HeLa = assay: Cytotoxicity against human non-HER2-dependent HeLa cells; type: functional, cell-based
[7] = biological target: Epidermal growth factor receptor (Homo sapiens, UniProt P00533)
Sequence of Epidermal growth factor receptor (P00533 whole entry): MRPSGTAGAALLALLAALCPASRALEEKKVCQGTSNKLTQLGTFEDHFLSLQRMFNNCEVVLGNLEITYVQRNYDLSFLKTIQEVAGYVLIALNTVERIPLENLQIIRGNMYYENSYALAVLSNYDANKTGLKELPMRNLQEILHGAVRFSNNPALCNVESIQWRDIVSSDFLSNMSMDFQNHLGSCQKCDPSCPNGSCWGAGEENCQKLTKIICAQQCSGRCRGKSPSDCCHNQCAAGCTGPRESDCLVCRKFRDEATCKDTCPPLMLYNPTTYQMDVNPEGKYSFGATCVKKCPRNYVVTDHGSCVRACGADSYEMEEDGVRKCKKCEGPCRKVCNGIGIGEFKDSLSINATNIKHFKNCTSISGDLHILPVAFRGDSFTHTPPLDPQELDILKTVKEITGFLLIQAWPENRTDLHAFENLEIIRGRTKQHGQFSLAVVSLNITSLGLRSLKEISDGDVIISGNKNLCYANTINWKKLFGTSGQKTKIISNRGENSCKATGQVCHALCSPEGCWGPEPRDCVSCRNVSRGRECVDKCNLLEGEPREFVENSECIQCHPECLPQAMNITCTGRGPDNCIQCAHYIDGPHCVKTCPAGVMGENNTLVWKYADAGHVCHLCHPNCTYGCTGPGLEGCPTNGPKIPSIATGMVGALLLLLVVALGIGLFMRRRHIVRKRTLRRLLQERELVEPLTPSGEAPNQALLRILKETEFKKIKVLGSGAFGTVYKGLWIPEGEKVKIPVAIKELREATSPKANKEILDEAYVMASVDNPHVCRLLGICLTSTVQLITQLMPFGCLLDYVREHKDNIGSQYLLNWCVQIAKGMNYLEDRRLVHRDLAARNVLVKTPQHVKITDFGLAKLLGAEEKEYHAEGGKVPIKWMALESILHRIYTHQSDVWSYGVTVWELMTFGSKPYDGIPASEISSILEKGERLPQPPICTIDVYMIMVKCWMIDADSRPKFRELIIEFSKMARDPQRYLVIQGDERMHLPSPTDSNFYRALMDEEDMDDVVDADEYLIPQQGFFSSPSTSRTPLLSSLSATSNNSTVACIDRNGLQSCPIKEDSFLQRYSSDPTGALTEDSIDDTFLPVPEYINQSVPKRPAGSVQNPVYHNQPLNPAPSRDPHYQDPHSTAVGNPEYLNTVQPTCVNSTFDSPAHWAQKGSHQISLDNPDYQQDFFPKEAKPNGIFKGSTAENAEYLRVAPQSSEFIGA

Which results are given for `Nc1ncnc(Nc2ccc(OCc3ccccc3)c(Cl)c2)c1C=O`?
inhibition [1]: 30%; inhibition [2]: < 10%; inhibition [3]: < 10%

How did the pIC50 [4] turn out when `Nc1ncnc(Nc2ccc(OCc3ccccc3)c(Cl)c2)c1C(=O)OCc1cccc(F)c1` was run?
Its pIC50 is under 4.00.

What about the pIC50 (Aurora kinase A) of the same compound?
Its pIC50 is under 4.00.

What about the pIC50 [5] of the same compound?
Its pIC50 is under 4.00.

What about the pIC50 [6] of the same compound?
Its pIC50 is under 4.00.

`Nc1ncnc(Nc2ccc(OCc3ccccc3)c(Cl)c2)c1C(=O)NCCN1CCOCC1` was tested. Which pIC50 [4] did it give?
The pIC50 was 5.00.

And the pIC50 (Aurora kinase A)?
The pIC50 was under 4.00.

And the pIC50 [5]?
Its pIC50 is under 4.00.

What about the pIC50 [6] of the same compound?
The pIC50 was under 4.00.

With `CCN(CC)C(=O)c1c(N)ncnc1Nc1ccc(OCc2ccccc2)c(Cl)c1` as the compound, how does the pIC50 [4] read?
Its pIC50 is under 4.00.

What about the pIC50 (Aurora kinase A) of the same compound?
The pIC50 was under 4.00.

What about the pIC50 [5] of the same compound?
Its pIC50 is under 4.00.

What about the pIC50 [6] of the same compound?
Its pIC50 is under 4.00.

`Nc1ncnc(Nc2ccc(OCc3ccccc3)c(Cl)c2)c1C(=O)NCCN1CCCCC1` was tested. Which pIC50 (Aurora kinase A) did it give?
The pIC50 was 4.00.

What about the pIC50 [5] of the same compound?
Its pIC50 is under 4.00.

What about the pIC50 [6] of the same compound?
Its pIC50 is under 4.00.

`Nc1ncnc(Nc2ccc(OCc3ccccc3)c(Cl)c2)c1C(=O)OCCN1CCOCC1` was tested. Which pIC50 [4] did it give?
Its pIC50 is 5.82.

What about the inhibition [1] of the same compound?
The inhibition was 55%.

And the inhibition [2]?
The inhibition was under 10%.

What about the inhibition [3] of the same compound?
Its inhibition is 11%.

What does the source list for `NNC(=O)c1c(N)ncnc1Nc1ccc(OCc2ccccc2)c(Cl)c1`?
pIC50 [4]: 6.84; pIC50 (Aurora kinase A): < 5.00; pIC50 [5]: < 4.00; pIC50 [6]: < 5.00

Which results are given for `Nc1ncnc(Nc2ccc(OCc3ccccc3)c(Cl)c2)c1C(=O)NNC(=O)CCN1CCOCC1`?
pIC50 (Aurora kinase A): < 4.00; pIC50 [5]: < 4.00; pIC50 [6]: < 4.00

What does the source list for `COC(=O)c1c(N)ncnc1Nc1ccc(OCc2ccccc2)c(Cl)c1`?
pIC50 [4]: 7.00; inhibition [1]: 50%

`COc1ccc(NC(=O)c2c(N)ncnc2Nc2ccc(OCc3ccccc3)c(Cl)c2)cc1` was tested. Which pIC50 [4] did it give?
Its pIC50 is under 4.00.

And the pIC50 (Aurora kinase A)?
Its pIC50 is under 5.00.

And the pIC50 [5]?
The pIC50 was under 4.00.

What about the pIC50 [6] of the same compound?
The pIC50 was under 4.00.

`Nc1ncnc(Nc2ccc(OCc3ccccc3)c(Cl)c2)c1-c1nnc(CCN2CCOCC2)o1` was tested. Which pIC50 [4] did it give?
The pIC50 was 7.10.

And the pIC50 (Aurora kinase A)?
The pIC50 was under 4.00.

What about the pIC50 [5] of the same compound?
Its pIC50 is under 4.00.

And the pIC50 [6]?
The pIC50 was under 4.00.

What about the pIC50 (NCI-N87) of the same compound?
Its pIC50 is 6.39.

And the pIC50 (BT-474)?
Its pIC50 is 6.51.

What about the pIC50 (SK-BR-3) of the same compound?
Its pIC50 is 6.49.

What about the pIC50 (HeLa) of the same compound?
The pIC50 was under 4.00.

What about the pIC50 [7] of the same compound?
Its pIC50 is 7.52.

How did the pIC50 [4] turn out when `Nc1ncnc(Nc2ccc(OCc3ccccc3)c(Cl)c2)c1C(=O)Nc1ccccc1` was run?
The pIC50 was under 4.00.

What about the pIC50 (Aurora kinase A) of the same compound?
Its pIC50 is under 4.00.

And the pIC50 [5]?
Its pIC50 is under 4.00.

What about the pIC50 [6] of the same compound?
Its pIC50 is under 4.00.

And the pIC50 [7]?
Its pIC50 is 7.12.

Which results are given for `COCCNC(=O)c1c(N)ncnc1Nc1ccc(OCc2ccccc2)c(Cl)c1`?
pIC50 [4]: < 4.00; pIC50 (Aurora kinase A): < 4.00; pIC50 [5]: < 4.00; pIC50 [6]: < 4.00

How did the pIC50 [4] turn out when `N#Cc1c(N)ncnc1Nc1ccc(OCc2ccccc2)c(Cl)c1` was run?
The pIC50 was 6.33.

What about the inhibition [1] of the same compound?
Its inhibition is 33%.

And the inhibition [2]?
Its inhibition is under 10%.

And the inhibition [3]?
Its inhibition is 37%.

What about the pIC50 [7] of the same compound?
Its pIC50 is 7.57.

`COc1ccc(CCNC(=O)c2c(N)ncnc2Nc2ccc(OCc3ccccc3)c(Cl)c2)cc1` was tested. Which pIC50 [4] did it give?
Its pIC50 is under 4.00.

What about the pIC50 (Aurora kinase A) of the same compound?
Its pIC50 is under 4.00.

What about the pIC50 [5] of the same compound?
Its pIC50 is under 4.00.

What about the pIC50 [6] of the same compound?
Its pIC50 is under 4.00.

`Nc1ncnc(Nc2ccc(OCc3ccccc3)c(Cl)c2)c1C(=O)O` was tested. Which inhibition [1] did it give?
Its inhibition is 73%.

And the inhibition [2]?
The inhibition was under 10%.

What about the inhibition [3] of the same compound?
Its inhibition is 30%.
